{
  "source": "ChEMBL document CHEMBL3102801",
  "about": "“Synthesis and antiproliferative activity of new derivatives containing the polycyclic system 5,7:7,13-dimethanopyrazolo[3,4-b]pyrazolo[3',4':2,3]azepino[4,5-f]azocine” (Eur J Med Chem, 2014)",
  "key": {"[1]": {"tested_on": "HT-29", "assay": "Growth inhibition of human HT-29 cells after 48 hrs by sulforhodamine B assay", "format": "functional", "details": "HT-29, 48 h"}, "[2]": {"tested_on": "HCT-116", "assay": "Growth inhibition of human HCT116 cells after 48 hrs by sulforhodamine B assay", "format": "functional", "details": "HCT-116, 48 h"}, "[3]": {"tested_on": "COLO 205", "assay": "Growth inhibition of human COLO205 cells after 48 hrs by sulforhodamine B assay", "format": "functional", "details": "COLO 205, 48 h"}, "[4]": {"assay": "Growth inhibition of human HCC2998 cells after 48 hrs by sulforhodamine B assay", "format": "functional", "details": "HCC 2998, 48 h"}, "[5]": {"tested_on": "NCI-H460", "assay": "Growth inhibition of human NCI-H460 cells after 48 hrs by sulforhodamine B assay", "format": "functional", "details": "NCI-H460, 48 h"}, "[6]": {"tested_on": "NCI-H23", "assay": "Growth inhibition of human NCI-H23 cells after 48 hrs by sulforhodamine B assay", "format": "functional", "details": "NCI-H23, 48 h"}, "[7]": {"tested_on": "HOP-62", "assay": "Growth inhibition of human HOP62 cells after 48 hrs by sulforhodamine B assay", "format": "functional", "details": "HOP-62, 48 h"}, "[8]": {"tested_on": "K562", "assay": "Growth inhibition of human K562 cells after 48 hrs by sulforhodamine B assay", "format": "functional", "details": "K562, 48 h"}, "[9]": {"tested_on": "HL-60(TB)", "assay": "Growth inhibition of human HL-60(TB) cells after 48 hrs by sulforhodamine B assay", "format": "functional", "details": "HL-60, 48 h"}, "[10]": {"target": "T1, Retinoblastoma-associated protein (Homo sapiens) (UniProt P06400)", "T1 sequence (whole entry)": "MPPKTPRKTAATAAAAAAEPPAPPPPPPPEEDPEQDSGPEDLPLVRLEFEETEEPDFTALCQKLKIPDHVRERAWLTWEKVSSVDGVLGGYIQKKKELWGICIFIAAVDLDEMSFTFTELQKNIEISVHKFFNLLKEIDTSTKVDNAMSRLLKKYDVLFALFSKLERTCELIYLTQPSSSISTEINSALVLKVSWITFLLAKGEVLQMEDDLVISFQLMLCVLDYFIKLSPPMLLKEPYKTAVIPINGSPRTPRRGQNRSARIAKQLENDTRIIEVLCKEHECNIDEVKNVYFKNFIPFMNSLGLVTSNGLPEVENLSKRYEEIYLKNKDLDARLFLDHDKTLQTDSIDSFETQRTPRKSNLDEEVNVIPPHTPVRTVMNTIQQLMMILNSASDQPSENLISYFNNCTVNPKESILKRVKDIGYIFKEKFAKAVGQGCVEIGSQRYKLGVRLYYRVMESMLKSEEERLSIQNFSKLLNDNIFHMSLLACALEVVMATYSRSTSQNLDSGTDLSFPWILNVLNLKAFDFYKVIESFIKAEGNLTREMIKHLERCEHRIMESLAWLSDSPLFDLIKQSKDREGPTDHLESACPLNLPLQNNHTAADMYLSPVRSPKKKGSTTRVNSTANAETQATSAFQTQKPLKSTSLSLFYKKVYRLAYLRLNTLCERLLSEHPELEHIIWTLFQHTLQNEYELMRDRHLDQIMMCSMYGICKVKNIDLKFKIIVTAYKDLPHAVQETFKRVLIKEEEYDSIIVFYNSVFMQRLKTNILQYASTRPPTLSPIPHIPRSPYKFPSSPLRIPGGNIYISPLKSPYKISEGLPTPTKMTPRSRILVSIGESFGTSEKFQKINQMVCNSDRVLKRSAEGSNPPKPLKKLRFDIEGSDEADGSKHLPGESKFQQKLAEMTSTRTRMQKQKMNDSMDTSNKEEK", "assay": "Inhibition of pRb p110 phosphorylation in human HCT116 cells at 5 to 10 uM after 48 hrs by Western blotting relative to unphosphorylated p105", "format": "cell-based", "details": "HCT-116"}, "[11]": {"target": "T1, Retinoblastoma-associated protein (Homo sapiens)", "assay": "Inhibition of pRb p110 phosphorylation in human MDA-MB-231 cells at 5 to 10 uM after 48 hrs by Western blotting relative to unphosphorylated p105", "format": "cell-based"}, "[12]": {"tested_on": "HCT-116", "assay": "Cell cycle arrest in human HCT116 cells assessed as accumulation of G2-M phase at 10 uM after 48 hrs using propidium iodide staining by flow cytometric analysis (reference value: 19.2%)", "format": "functional"}, "[13]": {"tested_on": "HCT-116", "assay": "Cell cycle arrest in human HCT116 cells assessed as accumulation of G0-G1 phase at 10 uM after 48 hrs using propidium iodide staining by flow cytometric analysis (reference value: 45.7%)", "format": "functional"}, "[14]": {"tested_on": "MDA-MB-231", "assay": "Cell cycle arrest in human MDA-MB-231 cells assessed as accumulation of G2-M phase at 10 uM after 48 hrs using propidium iodide staining by flow cytometric analysis (reference value: 27.5%)", "format": "functional"}, "[15]": {"tested_on": "MDA-MB-231", "assay": "Cell cycle arrest in human MDA-MB-231 cells assessed as accumulation of G2-M phase at 5 uM after 48 hrs using propidium iodide staining by flow cytometric analysis (reference value: 27.5%)", "format": "functional"}, "[16]": {"assay": "Therapeutic index, ratio of IC50 for human HeDe cells to IC50 for human MDA-MB-231 cells", "format": "cell-based", "details": "HeDe cells versus MDA-MB-231 cells, read-out: TI"}, "[17]": {"assay": "Cytotoxicity against human HuDe cells after 48 hrs by sulforhodamine B assay", "format": "cell-based"}, "[18]": {"tested_on": "BT-549", "assay": "Growth inhibition of human BT549 cells after 48 hrs by sulforhodamine B assay", "format": "functional", "details": "BT-549, 48 h"}, "[19]": {"tested_on": "MDA-MB-231", "assay": "Growth inhibition of human MDA-MB-231 cells after 48 hrs by sulforhodamine B assay", "format": "functional", "details": "MDA-MB-231, 48 h"}, "[20]": {"tested_on": "PC-3", "assay": "Growth inhibition of human PC3 cells after 48 hrs by sulforhodamine B assay", "format": "functional", "details": "PC-3, 48 h"}, "[21]": {"tested_on": "DU-145", "assay": "Growth inhibition of human DU145 cells after 48 hrs by sulforhodamine B assay", "format": "functional", "details": "DU-145, 48 h"}, "[22]": {"tested_on": "SN12C", "assay": "Growth inhibition of human SN12C cells after 48 hrs by sulforhodamine B assay", "format": "functional"}, "[23]": {"tested_on": "ACHN", "assay": "Growth inhibition of human ACHN cells after 48 hrs by sulforhodamine B assay", "format": "functional"}, "[24]": {"tested_on": "A498", "assay": "Growth inhibition of human A498 cells after 48 hrs by sulforhodamine B assay", "format": "functional", "details": "A498, 48 h"}, "[25]": {"tested_on": "SK-OV-3", "assay": "Growth inhibition of human SKOV3 cells after 48 hrs by sulforhodamine B assay", "format": "functional", "details": "SK-OV-3, 48 h"}, "[26]": {"tested_on": "786-0", "assay": "Growth inhibition of human 786-0 cells after 48 hrs by sulforhodamine B assay", "format": "functional", "details": "786-0, 48 h"}, "[27]": {"tested_on": "OVCAR-8", "assay": "Growth inhibition of human OVCAR8 cells after 48 hrs by sulforhodamine B assay", "format": "functional", "details": "OVCAR-8, 48 h"}, "[28]": {"assay": "Growth inhibition of human UACC257 cells after 48 hrs by sulforhodamine B assay", "format": "functional", "details": "UACC-257, 48 h"}, "[29]": {"tested_on": "SK-MEL-5", "assay": "Growth inhibition of human SK-MEL-5 cells after 48 hrs by sulforhodamine B assay", "format": "functional", "details": "SK-MEL-5, 48 h"}, "[30]": {"tested_on": "SK-MEL-28", "assay": "Growth inhibition of human SK-MEL-28 cells after 48 hrs by sulforhodamine B assay", "format": "functional", "details": "SK-MEL-28, 48 h"}, "[31]": {"tested_on": "MDA-MB-435", "assay": "Growth inhibition of human MDA-MB-435 cells after 48 hrs by sulforhodamine B assay", "format": "functional", "details": "MDA-MB-435, 48 h"}, "[32]": {"tested_on": "M14", "assay": "Growth inhibition of human M14 cells after 48 hrs by sulforhodamine B assay", "format": "functional", "details": "M14, 48 h"}, "[33]": {"tested_on": "SNB-19", "assay": "Growth inhibition of human SNB19 cells after 48 hrs by sulforhodamine B assay", "format": "functional", "details": "SNB-19, 48 h"}},
  "note": "Calls of active or inactive are those of the source. The rule behind the calls is not given here.",
  "data": [
    {"smiles": "C=C1c2c(C)nn(-c3ccc(OC)cc3)c2N(C)C23CC1C1(C)c4c(C)nn(-c5ccc(OC)cc5)c4N(C)C(C)(CC12)C3", "note": "(stereo not drawn)", "values": [
      {"measurement": "GI50", "setting": "[1]", "result": 3.24, "unit": "µM"},
      {"measurement": "GI50", "setting": "[2]", "result": 2.82, "unit": "µM"},
      {"measurement": "GI50", "setting": "[3]", "result": 2.2, "unit": "µM"},
      {"measurement": "GI50", "setting": "[4]", "result": 4.07, "unit": "µM"},
      {"measurement": "GI50", "setting": "[5]", "result": 2.49, "unit": "µM"},
      {"measurement": "GI50", "setting": "[6]", "result": 3.86, "unit": "µM"},
      {"measurement": "GI50", "setting": "[7]", "result": 4.28, "unit": "µM"},
      {"measurement": "GI50", "setting": "[8]", "result": 3.6, "unit": "µM"},
      {"measurement": "GI50", "setting": "[9]", "result": 2.54, "unit": "µM"},
      {"measurement": "inhibition", "setting": "[10]", "result": "Active"},
      {"measurement": "inhibition", "setting": "[11]", "result": "Active"},
      {"measurement": "Activity", "setting": "[12]", "result": 10.3, "unit": "%"},
      {"measurement": "Activity", "setting": "[13]", "result": 63.8, "unit": "%"},
      {"measurement": "Activity", "setting": "[14]", "result": 17.8, "unit": "%"},
      {"measurement": "Activity", "setting": "[15]", "result": 18.6, "unit": "%"},
      {"measurement": "selectivity ratio", "setting": "[16]", "result": 24.4},
      {"measurement": "IC50", "setting": "[17]", "result": 76, "unit": "µM"},
      {"measurement": "GI50", "setting": "[18]", "result": 3.1, "unit": "µM"},
      {"measurement": "GI50", "setting": "[19]", "result": 3.11, "unit": "µM"},
      {"measurement": "GI50", "setting": "[20]", "result": 1.75, "unit": "µM"},
      {"measurement": "GI50", "setting": "[21]", "result": 4.38, "unit": "µM"},
      {"measurement": "GI50", "setting": "[22]", "result": 3.65, "unit": "µM"},
      {"measurement": "GI50", "setting": "[23]", "result": 3.3, "unit": "µM"},
      {"measurement": "GI50", "setting": "[24]", "result": 2.47, "unit": "µM"},
      {"measurement": "GI50", "setting": "[25]", "result": 3.39, "unit": "µM"},
      {"measurement": "GI50", "setting": "[26]", "result": 4.23, "unit": "µM"},
      {"measurement": "GI50", "setting": "[27]", "result": 3.4, "unit": "µM"},
      {"measurement": "GI50", "setting": "[28]", "result": 2.68, "unit": "µM"},
      {"measurement": "GI50", "setting": "[29]", "result": 1.73, "unit": "µM"},
      {"measurement": "GI50", "setting": "[30]", "result": 5.86, "unit": "µM"},
      {"measurement": "GI50", "setting": "[31]", "result": 3.4, "unit": "µM"},
      {"measurement": "GI50", "setting": "[32]", "result": 3.88, "unit": "µM"},
      {"measurement": "GI50", "setting": "[33]", "result": 4.34, "unit": "µM"}
    ]}
  ]
}
